Patent US20250235543A1, “MODIFIED PROTEINS AND PROTEIN DEGRADERS” (Cullgen (Shanghai), Inc., priority 2021, published 2025)

What was measured:
Type in all cases: cell-based
CDK4, CDK6 = assay: Immunoblot of CDK4 and CDK6 protein levels in Calu-1 cells; conditions: 500 nM CPD-002
Protocol: Specific exemplary heterobifunctional compounds were characterized in Calu-1, BT-549 and other cells. Cells that express cyclin D1-3 and CDK4/6 proteins were treated with heterobifunctional compounds disclosed herein at indicated concentrations for 16 hours. Cells were collected, lysed and subject to immunoblotting using an antibody specific to cyclin D1, cyclin D2, cyclin D3, CDK4, CDK6 or phosphorylated R^b proteins. Tubulin or GAPDH was used as the loading control. DMSO treatment was used as the negative control.
In a time-course study, Calu-1 cells were treated with 500 nM CPD-002, or 100 nM CPD-031 for indicated period of time prior to immunoblotting (FIG. 4A-4B).
To verify that heterobifunctional compound-mediated degradation is dependent on the binding to CDK4-cyclin D complex, we designed three negative control compounds, CPD-042, CPD-049 and CPD-380, which are derived from CPD-002 CPD-031 and CPD-343, respectively. These three control compounds bear the same DDB1 ligand and linker as their corresponding active heterobifunctional compounds but with modified warheads to impair the binding of the control compounds to CDK4. […] Two cereblon (CRBN)-recruiting reference heterobifunctional compounds, CP-10 (Su, J Med Chem, 2019; CAS No.: 2366268-80-4) and BSJ-03-123 (Brand, Cell Chem Biol, 2019; CAS No.: 2361493-16-3) were analyzed in Calu-1 cells.

MDA-MB-468 = assay: Cell viability assay, MDA-MB-468; conditions: Homo sapiens, 72 h; MDA-MB-468, TNBC, 3 days; read-out: Cellular Anti-proliferation activity (IC50)
Protocol: Cells were treated with CDK4/6 inhibitors palbociclib, ribociclib, or abemaciclib, or heterobifunctional compounds CPD-002 or CPD-031 following a 9-point serial dilution for 3 days.
Cells were seeded at a density of 2,000-5,000 cells per well in 96-well assay plates and treated with test compounds following a 10-point serial dilution for 3-6 days. Cell viability was determined using the CellTiter-Lumi assay kit according to the manufacturer's instructions. The dose-response curves were determined and IC50 values were calculated using the GraphPad Prism software following a nonlinear regression (least squares fit) method. Data presented was mean±standard deviation (SD) unless otherwise indicated.

[1] = test system: Rb phosphorylation, cleaved caspase-3; assay: Immunoblotting of downstream Rb phosphorylation and cleaved caspase-3 in Calu-1 or BT-549 cells; conditions: 16 hours
Protocol: Calu-1 (FIG. 2A) or BT-549 (FIG. 2B) cells were treated with CPD-002, CPD-004, or palbociclib at indicated concentrations for 16 hours.
Cultured cells were washed with cold PBS once and lysed in cold RIPA buffer supplemented with protease inhibitors and phosphatase inhibitors (Beyotime Biotechnology). The solutions were then incubated at 4° C. for 30 min with gentle agitation to fully lysed cells. Cell lysates were centrifuged at 13,000 rpm for 10 min at 4° C. and pellets were discarded. Total protein concentrations in the lysates were determined following BCA assays (Beyotime Biotechnology). Cell lysates were mixed with Laemmli loading buffer and heated at 99° C. for 5 min. Proteins were resolved on SDS-PAGE and visualized using Western ECL Substrate kits on a ChemiDoc MP Imaging system (Bio-Rad). Protein bands were quantitated using the Image Lab software provided by Bio-Rad.

cyclin D1 = assay: Immunoblot of cyclin D1 in parental or DDB1 knockout Hs578T cells; conditions: parental vs DDB1 knockout Hs578T cells, 4 hours
Protocol: FIG. 5 show immunoblots of cyclin D1, cyclin D2 and cyclin D3 proteins expressed by Calu-1 cells after treatment with heterobifunctional compounds CPD-002 and CPD-004 (A), or CPD-031 (B) in the presence or absence of MLN4924 (MLN), MG-132 (MG), or TAK-243 (TAK), and immunoblots of cyclin D1 proteins expressed in parental or DDB1 knockout Hs578T cells after treatment with heterobifunctional compound CPD-031 at indicated concentrations for 4 hours (C).
The heterobifunctional compound-mediated degradation was dependent on the ubiquitin-proteasome system and cullin E3 ligase. […] In addition, DDB1 E3 ligase was critical for the degrader-induced cyclin D downregulation. Depletion of DDB1 using CRISPR-Cas9 technology attenuated the cyclin D degradation induced by CPD-031 (FIG. 5C).

Row | Compound | degradation of CDK4 and CDK6 relative to cyclin D, time-course (CDK4, CDK6) | IC50 (MDA-MB-468) [nM] | downstream Rb phosphorylation and cleaved caspase-3 [1] | cyclin D degradation after depletion of DDB1 (CRISPR-Cas9) (cyclin D1)
1 | CC(=O)c1c(C)c2cnc(Nc3ccc(N4CCN(CC(=O)NCCOCCOCCOCCOCCOCCNc5ccc(C(=O)Nc6ncc(C)s6)c(C)c5)CC4)cn3)nc2n(C2CCCC2)c1=O [CPD-002, 4-((1-(4-(6-((6-Acetyl-8-cyclopentyl-5-methyl-7-oxo-7,8-dihydropyrido[2,3-d]pyrimidin-2-yl)amino)pyridin-3-yl)piperazin-1-yl)-2-oxo-6,9,12,15,18-pentaoxa-3-azaicosan-20-yl)amino)-2-methyl-N-(5-methylthiazol-2-yl)benzamide] | occurred much slower | 1480 | inhibited downstream Rb phosphorylation and induced cleaved caspase-3 in a concentration-dependent manner | –
2 | CC(=O)c1c(C)c2cnc(Nc3ccc(N4CCN(CC(=O)NCCOCCOCCOCCOCCOCCNc5ccc(C(=O)Nc6nc(C)c(C)s6)c(C)c5)CC4)cn3)nc2n(C2CCCC2)c1=O [CPD-031, 4-((1-(4-(6-((6-Acetyl-8-cyclopentyl-5-methyl-7-oxo-7,8-dihydropyrido[2,3-d]pyrimidin-2-yl)amino)pyridin-3-yl)piperazin-1-yl)-2-oxo-6,9,12,15,18-pentaoxa-3-azaicosan-20-yl)amino)-N-(4,5-dimethylthiazol-2-yl)-2-methylbenzamide] | – | – | – | attenuated
